# Structures can show the parent of a compound that is named as a salt.
# Target: T1, recombinant full-length (fl)Tau aggregates (longest isoform of human Tau, 2N4R; 441 amino acids) (Homo sapiens, UniProt P10636)
# T1 construct: 35 μM of recombinant full-length (fl)Tau in PBS were aggregated for 24 hours; made in house; host or cells: bacteria
# Assay: Full-length Tau (flTau) disaggregation assay by Thioflavin T (ThT)
# Assay type: biochemical
# Conditions: ThT fluorescence; 2 μM flTau aggregates, 30 minutes at RT
# Method: Full-Length Tau (flTau) Disaggregation Assay by Thioflavin T (ThT)
# The longest isoform of human Tau (2N4R; 441 amino acids) was expressed in bacteria and purified. For the Tau disaggregation assay by ThT, 35 μM of recombinant full-length (fl)Tau in PBS were aggregated for 24 hours at 37° C. in presence of 50 μM of heparin (Sigma-Aldrich) and 10 mM of DTT (Sigma-Aldrich) under shaking at 750 RPM. Compounds were dissolved in anhydrous dimethyl sulfoxide (DMSO, Sigma-Aldrich) to reach a concentration of 10 mM. flTau aggregates and serial dilutions of compounds were mixed together in PBS (volume 50 μL) to a final concentration of 2 μM of flTau aggregates and from 160 to 0.04 μM of compounds. The mixture was incubated for 30 minutes at room temperature (RT), then 40 μL of this mixture were transferred into a black 384-well plate assay (Perkin-Elmer) and mixed with 10 μL of 100 μM ThT in 250 mM glycine (both from Sigma-Aldrich) in PBS. Fluorescence (relative fluorescence units; RFU) was measured in monoplicate or duplicate on a Tecan reader (excitation: 440 nm; emission: 485 nm). Percentage of flTau disaggregation was then calculated and the half maximal effective concentration (EC50) was determined using GraphPad Prism version 5 (GraphPad Software) assuming a one-binding site fitting model.
# T1 sequence (P10636 1-441 isoform P10636-8): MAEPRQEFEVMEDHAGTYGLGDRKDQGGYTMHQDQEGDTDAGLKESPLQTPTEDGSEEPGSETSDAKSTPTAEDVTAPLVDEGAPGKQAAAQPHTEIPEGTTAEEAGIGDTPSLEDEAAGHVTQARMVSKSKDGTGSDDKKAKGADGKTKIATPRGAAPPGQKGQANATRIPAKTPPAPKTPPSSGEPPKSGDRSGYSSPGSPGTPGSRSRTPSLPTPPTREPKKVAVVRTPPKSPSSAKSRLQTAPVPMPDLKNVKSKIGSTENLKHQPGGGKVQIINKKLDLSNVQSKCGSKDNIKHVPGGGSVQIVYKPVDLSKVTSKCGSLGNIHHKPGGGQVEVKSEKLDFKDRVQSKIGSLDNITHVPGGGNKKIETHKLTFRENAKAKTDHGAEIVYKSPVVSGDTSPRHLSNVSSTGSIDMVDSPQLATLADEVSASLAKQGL
row,EC50,Compound
1,< 10 µM,CN(C)c1nc2cc(N3CCc4c(n(C)c5ccc(F)cc45)C3)ccc2o1 [Example 13]
2,25 to 50 µM,Cn1c2c(c3cccnc31)CCN(c1ccc(N3CCOCC3)nc1)C2 [Example 105 HCl]
3,< 10 µM,COc1cc(N2CCc3c(n(C)c4ccc(F)cc34)C2)ccc1F [Example 9]
4,< 10 µM,Cn1c2c(c3cc(F)ccc31)CCN(c1ccc(N3CCOCC3)nc1)C2 [Example 8]
5,< 10 µM,COc1ccc2c(c1)c1c(n2C)CN(c2ccc3nc(N(C)C)oc3c2)CC1 [Example 19]
6,< 10 µM,COc1ccc2c(c1)c1c(n2C)CN(c2ccc3nc(N4CCOCC4)sc3c2)CC1 [Example 15]
7,< 10 µM,Cn1c2c(c3ccccc31)CCN(c1ccc3nc(N4CCOCC4)sc3c1)C2 [Example 1]
8,< 10 µM,CN(C)c1nc2ccc(N3CCc4c(n(C)c5ccccc45)C3)cc2s1 [Example 2]
9,< 10 µM,Cn1c2c(c3cc(F)ccc31)CCN(c1ccc3oc(N4CCOCC4)nc3c1)C2 [Example 104]
10,25 to 50 µM,Cn1c2c(c3cc(F)cnc31)CCN(c1ccc(N3CCOCC3)cn1)C2 [Example 107 HCl]
11,< 10 µM,CN(C)c1nc2ccc(N3CCc4c(n(C)c5ccc(F)cc45)C3)cc2o1 [Example 12]
12,< 10 µM,COc1ccc2c(c1)c1c(n2C)CN(c2ccc3nc(N(C)C)sc3c2)CC1 [Example 18]
13,< 10 µM,COc1ccc2c(c1)c1c(n2C)CN(c2ccc3sc(N4CCOCC4)nc3c2)CC1 [Example 14]
14,< 10 µM,Cn1c2c(c3ccc(F)cc31)CCN(c1ccc3nc(N4CCOCC4)sc3c1)C2 [Example 6]
15,< 10 µM,COc1ccc2c(c1)c1c(n2C)CN(c2ccc3sc(N(C)C)nc3c2)CC1 [Example 17]
16,< 10 µM,Cn1c2c(c3ccc(F)cc31)CCN(c1ccc3sc(N4CCOCC4)nc3c1)C2 [Example 7]
17,< 10 µM,CN(C)c1nc2cc(N3CCc4c(n(C)c5ccc(F)cc45)C3)ccc2s1 [Example 11]
18,< 10 µM,COc1ccc2c(c1)c1c(n2C)CN(c2ccc3oc(N4CCOCC4)nc3c2)CC1 [Example 16]

row,Compound,EC50
1,Fc1ccc2c3c([nH]c2c1)CN(c1ccc(N2CCOCC2)nc1)CC3 [Example 108 HCl],< 10 µM
2,c1ccc2c3c([nH]c2c1)CN(c1ccc(N2CCOCC2)nc1)CC3 [Example 44 HCl],< 10 µM
3,c1ccc2c3c([nH]c2c1)CN(c1ccc(N2CC4CC(C2)O4)nc1)CC3 [Example 71 HCl],10 to 25 µM
4,c1ccc2c3c([nH]c2c1)CN(c1ccc(N2CC4(CCOCC4)C2)nc1)CC3 [Example 80 HCl],10 to 25 µM
5,Fc1ccc2c3c([nH]c2c1)CN(c1ccc(N2CCOCC2)cn1)CC3 [Example 109 HCl],< 10 µM
6,Cn1c2c(c3ccccc31)CCN(c1ccc(N3CCOCC3)nc1)C2 [Example 46 HCl],10 to 25 µM
7,c1ccc2c3c([nH]c2c1)CN(c1ccc(N2C[C@H]4C[C@@H]2CO4)nc1)CC3 [Example 85 HCl],10 to 25 µM
8,c1ccc2c3c([nH]c2c1)CN(c1ccc(N2C[C@@H]4C[C@H]2CO4)nc1)CC3 [Example 86 HCl],< 10 µM
9,C[C@@H]1CN(c2ccc(N3CCc4c([nH]c5ccccc45)C3)cn2)C[C@H](C)O1 [Example 76 HCl],< 10 µM
10,C[C@H]1CN(c2ccc(N3CCc4c([nH]c5ccccc45)C3)cn2)CCO1 [Example 74 HCl],< 10 µM
11,C[C@@H]1CN(c2ccc(N3CCc4c([nH]c5ccccc45)C3)cn2)CCO1 [Example 75 HCl],< 10 µM
12,c1ccc2c3c([nH]c2c1)CN(c1ccc(N2CCC4(CC2)COC4)nc1)CC3 [Example 83 HCl],25 to 50 µM
13,Cn1c2c(c3ccc(F)cc31)CCN(c1ccc(N3CCOCC3)cn1)C2 [Example 111 HCl],< 10 µM
14,Cn1c2c(c3ccccc31)CCN(c1ccc(N3CCOCC3)cn1)C2 [Example 45 HCl],< 10 µM
15,Cn1c2c(c3ccc(F)cc31)CCN(c1ccc(N3CCOCC3)nc1)C2 [Example 110 HCl],< 10 µM
16,CCn1c2c(c3ccccc31)CCN(c1ccc(N3CCOCC3)nc1)C2 [Example 123 HCl],< 10 µM
17,C[C@H]1COCCN1c1ccc(N2CCc3c([nH]c4ccccc34)C2)cn1 [Example 79 HCl],10 to 25 µM

# Target: T2, Tau K18 fragment aggregates (amino acids 244 to 372 of human Tau441) (Homo sapiens, UniProt P10636)
# T2 construct: encompassing amino acids 244 to 372 of the longest isoform (2N4R) of human Tau441; host or cells: bacteria
# Assay: Tau K18 disaggregation assay by ThT
# Assay type: biochemical
# Conditions: ThT fluorescence; 2 μM K18 aggregates, 30 minutes at RT
# Method: Tau K18 Disaggregation Assay by ThT
# The Tau K18 fragment, encompassing amino acids 244 to 372 of the longest isoform (2N4R) of human Tau441, was expressed in bacteria and purified or bought from SignalChem. For the K18 disaggregation assay by ThT, 35 μM of recombinant K18 in PBS were aggregated for 24 hours at 37° C. in presence of 50 μM of heparin (Sigma-Aldrich) and 10 mM of DTT (Sigma-Aldrich) under shaking at 750 RPM. Compounds were dissolved in anhydrous dimethyl sulfoxide (DMSO, Sigma-Aldrich) to reach a concentration of 10 mM. K18 aggregates and serial dilutions of compounds were mixed together in PBS (volume 50 μL) to a final concentration of 2 μM of K18 aggregates and from 160 to 0.04 μM of compounds. The mixture was incubated for 30 minutes at room temperature (RT), then 40 μL of this mixture were transferred into a black 384-well plate assay (Perkin-Elmer) and mixed with 10 μL of 100 μM ThT in 250 mM glycine (both from Sigma-Aldrich) in PBS. Fluorescence (relative fluorescence units; RFU) was measured in monoplicate or duplicate on a Tecan reader (excitation: 440 nm; emission: 485 nm). Percentage of K18 disaggregation was then calculated and half maximal effective concentration (E050) was determined using GraphPad Prism version 5 (GraphPad Software) assuming a one-binding site fitting model.
# T2 sequence (P10636 561-689): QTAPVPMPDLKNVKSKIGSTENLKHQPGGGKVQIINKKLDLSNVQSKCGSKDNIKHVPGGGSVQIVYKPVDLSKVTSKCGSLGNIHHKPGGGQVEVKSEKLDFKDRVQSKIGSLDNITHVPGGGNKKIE
row,EC50,Compound
1,< 10 µM,c1ccc2c3c([nH]c2c1)CN(c1ccc(N2CCOCC2)cn1)CC3 [Example 43]
2,< 10 µM,COc1ccc2c(c1)c1c(n2C)CN(c2ccc3oc(N(C)C)nc3c2)CC1 [Example 21]
3,< 10 µM,c1ccc2c3c([nH]c2c1)CN(c1ccc2nc(N4CCOCC4)sc2c1)CC3 [Example 38]

row,Compound,EC50
1,Cn1c2c(c3ccccc31)CCN(c1ccc(N3CCOCC3)cn1)C2 [Example 45],< 10 µM

# Target: T3, Aggregated human Tau in human neuroblastoma cell line overexpressing full-length human Tau P301L (Homo sapiens, UniProt P10636, P618L)
# T3 construct: overexpressing the full-length form of human Tau carrying the P301L mutation; expressed in transfected cells; host or cells: human neuroblastoma cell line (G418 selection)
# Assay: Reduction of intracellular Tau aggregation (AlphaLISA, aggregated Tau normalized to total Tau)
# Assay type: cell-based
# Conditions: compound at 5 μM, 24 h, relative to DMSO-treated cells
# Method: Reduction of Intracellular Tau Aggregation
# A human neuroblastoma cell line overexpressing the full-length form of human Tau carrying the P301L mutation was cultured in complete medium [DMEM-F12 4.5 g/L Glutamax (Invitrogen), 15% FBS (Biochrom), 1% Peni/Strep (Invitrogen) supplemented with 2.5 μg/ml of G418 (Sigma-Aldrich) selection antibiotic]. The day before the experiment 5×10^5 cells/well were plated in a 6 well plate in 3 mL of complete medium. The next day, cells were incubated with DMSO or a compound of the present invention at 5 μM for additional 24 h at 37° C. After incubation, cells were trypsinized, resupsended in 100 μl of homogenization buffer [25 mM Tris-HCl pH 7.4, 150 mM NaCl, 1 mM EDTA, 1 mM EGTA containing phosphatase inhibitors (30 mM NaF, 0.2 mM Na3VO4, 1 nM okadaic acid, 1 mM PMSF, 5 mM Na4P2O7) and protease inhibitor cocktail (Complete™, Roche)], and then physically lysed with three rapid cycles of freezing and thawing. Samples were then directly tested in the AlphaLISA assay.
# Phosphorylated, aggregated, and total Tau were quantified by AlphaLisa using the following antibody pairs: • HT7-Acceptor beads+biotin (BT)-Tau13-Donor beads: Total Tau • HT7-Acceptor beads+biotin (BT)-HT7-Donor beads: Aggregated human Tau
# The Tau13 (Abcam) was biotinylated using EZ-Link® NHS-PEO Solid Phase biotinylation kit (Thermo Scientific), while the HT7-biotin was from a commercial source (Thermo Scientific).
# For each antibody pairs the concentration of acceptor beads and biotinylated antibodies was optimized. All samples were first tested in a dilution series in PBS in order to identify the linear range and optimal dilution for each sample and assay. For the final protocol, the following reagents were added in a 384-well white OptiPlate (PerkinElmer): • 5 μL of test diluted sample • 20 μL of the mixture biotin-mAb acceptor beads at the following final concentrations: • HT7-BT at 1.25 nM in combination with HT7-Acc beads at 10 μg/ml • Tau13-BT at 5 nM in combination with HT7-Acc beads at 2.5 μg/ml
# After incubation of this mixture at room temperature for 1 h, 25 μL of Streptavidin Donor beads (Perkin Elmer) at 25 μg/mL were added in the dark. Plates were analyzed after 30 min incubation using the EnSpire Alpha instrument and EnSpire Workstation version 3.00. Data for aggregated Tau were normalized to total Tau and then expressed as percentage of the DMSO-treated cells.
# T3 sequence (P10636 1-441 isoform P10636-8 P301L): as the sequence (P10636 1-441 isoform P10636-8) above, with P301L counted along it
row,% Reduction of intracellular Tau aggregation,Compound
1,++ (++ % 50 < x < 25),c1ccc2c3c([nH]c2c1)CN(c1ccc(N2CCOCC2)cn1)CC3 [Example 43]
2,+ (+ % 25 < x < 10),CN(C)c1nc2ccc(N3CCc4c(n(C)c5ccc(F)cc45)C3)cc2o1 [Example 12]
3,+ (+ % 25 < x < 10),COc1ccc2c(c1)c1c(n2C)CN(c2ccc3oc(N(C)C)nc3c2)CC1 [Example 21]
4,+ (+ % 25 < x < 10),c1ccc2c3c([nH]c2c1)CN(c1ccc2nc(N4CCOCC4)sc2c1)CC3 [Example 38]

row,Compound,% Reduction of intracellular Tau aggregation
1,Cn1c2c(c3ccccc31)CCN(c1ccc(N3CCOCC3)cn1)C2 [Example 45],++ (++ % 50 < x < 25)
